# “Also recorded” adds a separate entry of the source. Where a name gives a salt, the structure may show the parent alone.
# How the values were obtained:
# [1] = molecular target: T1, recombinant guanylate cyclase reporter cell line (Rattus norvegicus, UniProt P20595); assay: Effect on a recombinant guanylate cyclase reporter cell line; format: cell-based
# T1 construct: expressed in transfected cells; CHO by own knowledge of the cited Wunder et al. 2005
# T1 sequence (P20595 1-619): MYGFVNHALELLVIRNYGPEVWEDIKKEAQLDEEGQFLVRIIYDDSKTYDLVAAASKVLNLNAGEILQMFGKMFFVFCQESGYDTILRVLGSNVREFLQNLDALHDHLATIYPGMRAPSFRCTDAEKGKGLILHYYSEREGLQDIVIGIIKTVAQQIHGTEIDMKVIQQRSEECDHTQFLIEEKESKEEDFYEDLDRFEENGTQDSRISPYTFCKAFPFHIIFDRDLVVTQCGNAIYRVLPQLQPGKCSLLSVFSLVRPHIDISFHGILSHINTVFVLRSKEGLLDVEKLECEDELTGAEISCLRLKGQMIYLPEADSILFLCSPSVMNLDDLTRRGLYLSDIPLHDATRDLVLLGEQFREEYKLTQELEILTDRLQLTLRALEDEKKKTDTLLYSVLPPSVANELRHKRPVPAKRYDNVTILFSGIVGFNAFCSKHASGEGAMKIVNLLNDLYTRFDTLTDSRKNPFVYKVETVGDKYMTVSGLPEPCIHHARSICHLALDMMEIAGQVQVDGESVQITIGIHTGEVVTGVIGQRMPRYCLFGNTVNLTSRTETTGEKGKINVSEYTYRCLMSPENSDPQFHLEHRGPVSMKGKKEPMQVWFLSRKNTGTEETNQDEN
# T1 sequence (P19686 1-690 partner): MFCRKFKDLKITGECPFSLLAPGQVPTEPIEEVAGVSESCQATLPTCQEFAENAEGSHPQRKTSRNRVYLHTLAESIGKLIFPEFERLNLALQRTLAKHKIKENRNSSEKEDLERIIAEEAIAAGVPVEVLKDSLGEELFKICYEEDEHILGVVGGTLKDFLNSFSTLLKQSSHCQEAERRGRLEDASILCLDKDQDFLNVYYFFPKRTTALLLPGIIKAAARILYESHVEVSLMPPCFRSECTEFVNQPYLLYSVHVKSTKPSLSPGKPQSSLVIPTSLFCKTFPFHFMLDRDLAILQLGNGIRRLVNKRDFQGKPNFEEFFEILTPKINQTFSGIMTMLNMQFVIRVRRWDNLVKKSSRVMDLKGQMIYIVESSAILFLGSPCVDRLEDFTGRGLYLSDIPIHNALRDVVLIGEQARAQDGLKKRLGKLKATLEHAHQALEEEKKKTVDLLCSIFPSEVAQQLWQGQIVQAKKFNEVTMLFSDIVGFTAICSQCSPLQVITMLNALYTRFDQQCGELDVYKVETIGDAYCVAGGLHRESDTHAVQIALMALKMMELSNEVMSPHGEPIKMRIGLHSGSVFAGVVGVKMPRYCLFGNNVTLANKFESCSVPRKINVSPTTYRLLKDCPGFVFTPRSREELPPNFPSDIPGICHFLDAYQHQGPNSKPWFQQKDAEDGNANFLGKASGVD
# Procedure: B-1. Effect on a Recombinant Guanylate Cyclase Reporter Cell Line
# The cellular activity of the compounds according to the invention was determined using a recombinant guanylate cyclase reporter cell line, as described in F. Wunder et al., Anal. Biochem. 339, 104-112 (2005).
# [2] = tested on: retinal ischemia reperfusion (I/R) in rat; assay: Acute changes in rat retinal structure after retinal ischemia reperfusion (I/R), prophylactic settings; format: in vivo, male Wistar Unilever rats; settings: I/R rats
# Source text: B-7 Evaluation of Acute Changes in Rat Retinal Structure after Retinal Ischemia Reperfusion (I/R) Prophylactic Settings
# Six male Wistar Unilever rats were used per experimental group. On induction day, rats were anesthetized with an intraperitoneal injection of Rompun® and Ketavet® before the pupils of the right eyes (oculus dextrus, OD) were dilated with Alcain eye drops and in addition treated with Vigamox® eye drops. The left eye (oculus sinister, OS) is covered with Bepanthen® eye cream. Under deep anesthesia, the retina and the optic nerve were examined by optical coherence tomography (OCT) as a baseline measurement. 15 minutes before induction, group 2 received an intravenous (IV) bolus of compound (e.g. example 3, formula I-E-R) (i.v. 3 mg/kg in rat plasma). Then, the anterior chamber was punctured with a 30 G needle. Through a tube, 0.9% NaCl solution was pumped into the anterior chamber with a pressure 120 mm Hg. The pressure is regulated with a blood pressure cuff. The intraocular pressure (IOP) was elevated for 45 min. The procedure was successful as the eyeballs discolored because of vascular obstruction. After 45 min, the needle was removed, eye cream was put on the right eye and the animal could wake up. […]
# Functional read-out of retinal electrical signal in response to light stimulation “b-wave amplitude (μv)” represents inner retinal function. […]
smiles,measurement,setting,value
"CC(C)CN1CCN(c2ccc(-c3ccc(Cl)cc3N3CCC[C@@H](n4ncc(C(=O)O)c4C(F)F)C3)cc2)CC1 [Example 3, 1-{1-[4-Chloro-4′-(4-isobutylpiperazin-1-yl)[biphenyl]-2-yl]piperidin-3-yl}-5-(difluoromethyl)-1H-pyrazole-4-carboxylic acid hydrochloride]",EC50,[1],2.7 nM
same,MEC (minimum effective concentration),[1]; hydrochloride,0.6 nM
same,retinal structure (OCT and histological examination),[2]; day 7 post ischemic induction,preserved retinal structure in both OCT and histological examination
same,"b wave amplitude (ERG, retinal function)","[2]; oral QD from 2 days before to 6 days after induction plus i.v. 3 mg/kg bolus 15 min before induction, day 7 post induction, hydrochloride, 3 mg/kg",significant higher b wave amplitude compared to vehicle treated animals; also recorded: reduces ischemia induced retinal dysfunction

# Source: US20230346777A1, “USE OF SGC ACTIVATORS FOR THE TREATMENT OF OPHTHALMOLOGIC DISEASES” (Bayer Aktiengesellschaft, priority 2020, published 2023)
